# Test results: PubChem BioAssay AID1963434 (Molecular Pharmacology Branch, DTP, NCI, 2024)
# “And” between values parts separate entries of the source, which are not always exact repeats. Equal values may be shown once.
# System: 755483-174-R-J1-PDC complex spheroid growth, percent test/control
# Assay: Anticancer human tumor 755483-174-R-J1-PDC patient-derived rhabdomyosarcoma cell line growth inhibition [Asc]
# Settings: for viability, T/C: stronger effect = lower value
# Procedure, shortened: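 Complex spheroids combining tumor cells with HUVEC endothelial cells and human MSCs, at 37 degrees C, 5% CO2; agents tested alone or combined, half-log dilutions from at or near clinical Cmax, or 10 microM if Cmax unknown.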
# [1] = curve of first compound, second compound 0.1 µM
# [2] = curve of first compound, second compound 0.316 µM
# [3] = curve of first compound, second compound 1 µM
# 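Note: spheroids exposed to compounds for seven days before readout.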
smiles,measurement,setting,value
CNC(C)C(=O)NC1CN(S(=O)(=O)c2cccc(S(=O)(=O)N3CCC4CCC(C(=O)NC(c5ccccc5)c5ccccc5)N4C(=O)C(NC(=O)C(C)NC)C3)c2)CCC2CCC(C(=O)NC(c3ccccc3)c3ccccc3)N2C1=O (stereo not drawn),"viability, T/C",compound 0.00316 µM,48.1% and 88.5%
same,"viability, T/C",compound 0.1 µM,37.5% [middle of 15 runs]
same,IC50,curve of compound,< 3.16 nM and 23 nM
CCN1CCN(Cc2ccc(Nc3ncc(F)c(-c4cc(F)c5nc(C)n(C(C)C)c5c4)n3)nc2)CC1 + CNC(C)C(=O)NC1CN(S(=O)(=O)c2cccc(S(=O)(=O)N3CCC4CCC(C(=O)NC(c5ccccc5)c5ccccc5)N4C(=O)C(NC(=O)C(C)NC)C3)c2)CCC2CCC(C(=O)NC(c3ccccc3)c3ccccc3)N2C1=O,IC50,"curve of first compound, second compound 0.01 µM",< 3.16 nM
same,IC50,"curve of first compound, second compound 0.0316 µM",< 3.16 nM
same,IC50,[1],> 1000 nM
same,IC50,[2],< 3.16 nM
same,IC50,[3],< 3.16 nM
same,"viability, T/C","second compound 0.01 µM, first compound 0.00316 µM",31.1%
same,"viability, T/C","second compound 0.01 µM, first compound 0.01 µM",66%
same,"viability, T/C","second compound 0.01 µM, first compound 0.0316 µM",53.4%
same,"viability, T/C","second compound 0.01 µM, first compound 0.1 µM",54.2%
same,"viability, T/C","second compound 0.01 µM, first compound 0.316 µM",61%
same,"viability, T/C","second compound 0.01 µM, first compound 1 µM",74.4%
same,"viability, T/C","second compound 0.0316 µM, first compound 0.00316 µM",43.8%
same,"viability, T/C","second compound 0.0316 µM, first compound 0.01 µM",33.8%
same,"viability, T/C","second compound 0.0316 µM, first compound 0.0316 µM",40.6%
same,"viability, T/C","second compound 0.0316 µM, first compound 0.1 µM",40.5%
same,"viability, T/C","second compound 0.0316 µM, first compound 0.316 µM",63.8%
same,"viability, T/C","second compound 0.0316 µM, first compound 1 µM",69.5%
same,"viability, T/C","second compound 0.1 µM, first compound 0.00316 µM",58.5%
same,"viability, T/C","second compound 0.1 µM, first compound 0.01 µM",37.7%
same,"viability, T/C","second compound 0.1 µM, first compound 0.0316 µM",55.4%
same,"viability, T/C","second compound 0.1 µM, first compound 0.1 µM",59.5%
same,"viability, T/C","second compound 0.1 µM, first compound 0.316 µM",47.8%
same,"viability, T/C","second compound 0.1 µM, first compound 1 µM",57.5%
same,"viability, T/C","second compound 0.316 µM, first compound 0.00316 µM",16.2%
same,"viability, T/C","second compound 0.316 µM, first compound 0.01 µM",37.3%
same,"viability, T/C","second compound 0.316 µM, first compound 0.0316 µM",40.9%
same,"viability, T/C","second compound 0.316 µM, first compound 0.1 µM",31%
same,"viability, T/C","second compound 0.316 µM, first compound 0.316 µM",47.5%
same,"viability, T/C","second compound 0.316 µM, first compound 1 µM",39.9%
same,"viability, T/C","second compound 1 µM, first compound 0.00316 µM",32.1%
same,"viability, T/C","second compound 1 µM, first compound 0.01 µM",18.2%
same,"viability, T/C","second compound 1 µM, first compound 0.0316 µM",26.8%
same,"viability, T/C","second compound 1 µM, first compound 0.1 µM",18.6%
same,"viability, T/C","second compound 1 µM, first compound 0.316 µM",26.1%
same,"viability, T/C","second compound 1 µM, first compound 1 µM",32.3%
CNC(C)C(=O)NC1CN(S(=O)(=O)c2cccc(S(=O)(=O)N3CCC4CCC(C(=O)NC(c5ccccc5)c5ccccc5)N4C(=O)C(NC(=O)C(C)NC)C3)c2)CCC2CCC(C(=O)NC(c3ccccc3)c3ccccc3)N2C1=O (stereo not drawn) + CCN1C(C(=O)NC23CCC(C(=O)O)(CC2)CC3)C(c2cccc(Cl)c2F)C2(C(=O)Nc3cc(Cl)ccc32)C12CCCCC2,IC50,"curve of first compound, second compound 0.03 µM",68.5 nM
same,IC50,"curve of first compound, second compound 0.0949 µM",42.9 nM
same,IC50,"curve of first compound, second compound 0.3 µM",76.7 nM
same,IC50,"curve of first compound, second compound 0.949 µM",9.97 nM
same,IC50,"curve of first compound, second compound 3 µM",12.5 nM
same,"viability, T/C","second compound 0.03 µM, first compound 0.00316 µM",80.3%
same,"viability, T/C","second compound 0.03 µM, first compound 0.01 µM",65.6%
same,"viability, T/C","second compound 0.03 µM, first compound 0.0316 µM",51.9%
same,"viability, T/C","second compound 0.03 µM, first compound 0.1 µM",52%
same,"viability, T/C","second compound 0.03 µM, first compound 0.316 µM",39.7%
same,"viability, T/C","second compound 0.03 µM, first compound 1 µM",36.2%
same,"viability, T/C","second compound 0.0949 µM, first compound 0.00316 µM",74.6%
same,"viability, T/C","second compound 0.0949 µM, first compound 0.01 µM",64.6%
same,"viability, T/C","second compound 0.0949 µM, first compound 0.0316 µM",51.1%
same,"viability, T/C","second compound 0.0949 µM, first compound 0.1 µM",40.9%
same,"viability, T/C","second compound 0.0949 µM, first compound 0.316 µM",43.9%
same,"viability, T/C","second compound 0.0949 µM, first compound 1 µM",32.5%
same,"viability, T/C","second compound 0.3 µM, first compound 0.00316 µM",76.7%
same,"viability, T/C","second compound 0.3 µM, first compound 0.01 µM",80.9%
same,"viability, T/C","second compound 0.3 µM, first compound 0.0316 µM",56.1%
same,"viability, T/C","second compound 0.3 µM, first compound 0.1 µM",39.1%
same,"viability, T/C","second compound 0.3 µM, first compound 0.316 µM",46%
same,"viability, T/C","second compound 0.3 µM, first compound 1 µM",59.5%
same,"viability, T/C","second compound 0.949 µM, first compound 0.00316 µM",92.7%
same,"viability, T/C","second compound 0.949 µM, first compound 0.01 µM",48.8%
same,"viability, T/C","second compound 0.949 µM, first compound 0.0316 µM",52.6%
same,"viability, T/C","second compound 0.949 µM, first compound 0.1 µM",56.2%
same,"viability, T/C","second compound 0.949 µM, first compound 0.316 µM",42%
same,"viability, T/C","second compound 0.949 µM, first compound 1 µM",34.6%
same,"viability, T/C","second compound 3 µM, first compound 0.00316 µM",51.5%
same,"viability, T/C","second compound 3 µM, first compound 0.01 µM",54%
same,"viability, T/C","second compound 3 µM, first compound 0.0316 µM",38.8%
same,"viability, T/C","second compound 3 µM, first compound 0.1 µM",36.8%
same,"viability, T/C","second compound 3 µM, first compound 0.316 µM",23.5%
same,"viability, T/C","second compound 3 µM, first compound 1 µM",54.1%
CCN1C(C(=O)NC23CCC(C(=O)O)(CC2)CC3)C(c2cccc(Cl)c2F)C2(C(=O)Nc3cc(Cl)ccc32)C12CCCCC2 (stereo not drawn) + Cc1c(S(C)(=O)=O)c(-c2cc(F)cc(N3CCN(c4ccc(NS(=O)(=O)c5ccc(NC(CCN6CCC(C(=O)OCCCP(=O)(O)O)CC6)CSc6ccccc6)c(S(=O)(=O)C(F)(F)F)c5)cc4)CC3)c2)c(-c2ccc(Cl)cc2)n1C(C)C,IC50,[1],1740 nM
same,IC50,[2],< 9.49 nM
same,IC50,[3],< 9.49 nM
same,IC50,"curve of first compound, second compound 3.16 µM",< 9.49 nM
same,IC50,"curve of first compound, second compound 10 µM",26.8 nM
same,"viability, T/C","second compound 0.1 µM, first compound 0.00949 µM",68.7%
same,"viability, T/C","second compound 0.1 µM, first compound 0.03 µM",60.5%
same,"viability, T/C","second compound 0.1 µM, first compound 0.0949 µM",57.5%
same,"viability, T/C","second compound 0.1 µM, first compound 0.3 µM",61.4%
same,"viability, T/C","second compound 0.1 µM, first compound 0.949 µM",65.5%
same,"viability, T/C","second compound 0.1 µM, first compound 3 µM",38.7%
same,"viability, T/C","second compound 0.316 µM, first compound 0.00949 µM",49%
same,"viability, T/C","second compound 0.316 µM, first compound 0.03 µM",33.9%
same,"viability, T/C","second compound 0.316 µM, first compound 0.0949 µM",55.8%
same,"viability, T/C","second compound 0.316 µM, first compound 0.3 µM",30.4%
same,"viability, T/C","second compound 0.316 µM, first compound 0.949 µM",59.7%
same,"viability, T/C","second compound 0.316 µM, first compound 3 µM",36.1%
same,"viability, T/C","second compound 1 µM, first compound 0.00949 µM",48.3%
same,"viability, T/C","second compound 1 µM, first compound 0.03 µM",47%
same,"viability, T/C","second compound 1 µM, first compound 0.0949 µM",38.7%
same,"viability, T/C","second compound 1 µM, first compound 0.3 µM",45.5%
same,"viability, T/C","second compound 1 µM, first compound 0.949 µM",29.2%
same,"viability, T/C","second compound 1 µM, first compound 3 µM",40%
same,"viability, T/C","second compound 3.16 µM, first compound 0.00949 µM",36.8%
same,"viability, T/C","second compound 3.16 µM, first compound 0.03 µM",34.1%
same,"viability, T/C","second compound 3.16 µM, first compound 0.0949 µM",34.4%
same,"viability, T/C","second compound 3.16 µM, first compound 0.3 µM",46.9%
same,"viability, T/C","second compound 3.16 µM, first compound 0.949 µM",37.9%
same,"viability, T/C","second compound 3.16 µM, first compound 3 µM",27.5%
same,"viability, T/C","second compound 10 µM, first compound 0.00949 µM",40.6%
same,"viability, T/C","second compound 10 µM, first compound 0.03 µM",64.6%
same,"viability, T/C","second compound 10 µM, first compound 0.0949 µM",52.8%
same,"viability, T/C","second compound 10 µM, first compound 0.3 µM",38.5%
same,"viability, T/C","second compound 10 µM, first compound 0.949 µM",40.5%
same,"viability, T/C","second compound 10 µM, first compound 3 µM",45.9%
